Laboratory results reported in PMC8688152, “Distinct classes of potassium channels fused to GPCRs as electrical signaling biosensors” (Cell Reports Methods, 2021).

Legend:
M2_Kcv-09-03 = molecular target: T1, M2_Kcv-09-03 (UniProt P08172+Q84568); assay: TEVC recording of M2_Kcv-09-03 ICCR expressed in Xenopus oocytes; type: cell-based, human (M2), Paramecium bursaria chlorella virus 1 (Kcv)
T1 construct: expressed in transfected cells; host or cells: Xenopus oocytes (mRNA injection)
T1 sequence (P08172+Q84568 with tags, fused parts or gaps): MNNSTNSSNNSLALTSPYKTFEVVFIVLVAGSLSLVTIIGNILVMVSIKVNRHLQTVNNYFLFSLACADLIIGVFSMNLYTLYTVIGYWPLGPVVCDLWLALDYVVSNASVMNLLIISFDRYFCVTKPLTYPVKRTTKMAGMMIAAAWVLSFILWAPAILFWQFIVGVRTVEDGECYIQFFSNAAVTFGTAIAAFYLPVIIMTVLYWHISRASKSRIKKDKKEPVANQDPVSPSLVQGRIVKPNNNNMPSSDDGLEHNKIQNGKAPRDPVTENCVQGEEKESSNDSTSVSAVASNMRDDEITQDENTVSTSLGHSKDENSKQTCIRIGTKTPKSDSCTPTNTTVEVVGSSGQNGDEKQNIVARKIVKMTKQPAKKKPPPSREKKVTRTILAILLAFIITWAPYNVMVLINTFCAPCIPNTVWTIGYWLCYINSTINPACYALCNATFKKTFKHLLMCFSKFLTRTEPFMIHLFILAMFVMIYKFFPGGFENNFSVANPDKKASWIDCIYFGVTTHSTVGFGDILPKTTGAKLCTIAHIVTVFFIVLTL
Method: (§1) Microelectrodes were filled with […]. […] The membrane voltage was clamped to −50 mV.

M2_T-00-43 = molecular target: T2, M2_T-00-43 (UniProt P08172+P97438); assay: TEVC recording of M2_T-00-43 ICCR in Xenopus oocytes; type: cell-based, human (M2), mouse (TREK-1); design: full-length (−00) or M2 deleted of its last nine residues (−09) in the indicated ICCRs; expressed in transfected cells; host or cells: Xenopus oocytes (mRNA injection)
T2 sequence (P08172+P97438 with tags, fused parts or gaps): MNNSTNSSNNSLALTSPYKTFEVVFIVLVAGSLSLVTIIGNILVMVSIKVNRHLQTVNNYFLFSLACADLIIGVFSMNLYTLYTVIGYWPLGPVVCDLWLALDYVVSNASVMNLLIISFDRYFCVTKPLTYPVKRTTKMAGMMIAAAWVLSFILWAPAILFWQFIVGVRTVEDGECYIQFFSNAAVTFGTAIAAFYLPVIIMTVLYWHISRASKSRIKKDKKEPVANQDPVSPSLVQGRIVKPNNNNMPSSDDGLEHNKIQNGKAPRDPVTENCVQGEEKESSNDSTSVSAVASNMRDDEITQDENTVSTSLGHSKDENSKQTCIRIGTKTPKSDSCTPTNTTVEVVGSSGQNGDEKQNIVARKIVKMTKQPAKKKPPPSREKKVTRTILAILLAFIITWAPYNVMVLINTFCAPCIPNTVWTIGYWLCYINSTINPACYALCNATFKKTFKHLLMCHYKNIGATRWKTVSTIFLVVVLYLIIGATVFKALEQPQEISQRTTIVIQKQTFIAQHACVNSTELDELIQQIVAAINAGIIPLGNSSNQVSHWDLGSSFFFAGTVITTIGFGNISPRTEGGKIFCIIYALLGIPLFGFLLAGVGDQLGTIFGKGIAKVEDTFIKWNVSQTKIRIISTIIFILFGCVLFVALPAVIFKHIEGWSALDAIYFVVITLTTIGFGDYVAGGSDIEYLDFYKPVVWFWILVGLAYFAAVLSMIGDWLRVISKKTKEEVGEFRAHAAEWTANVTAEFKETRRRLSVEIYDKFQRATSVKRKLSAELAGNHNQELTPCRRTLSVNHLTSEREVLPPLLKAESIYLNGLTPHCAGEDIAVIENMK
Method: Xenopus oocytes were prepared as previously reported ([Moreau et al., 2008]). Briefly, after surgical retrieval, the oocytes were defolliculated by type 1A collagenase. Each oocyte was injected with 50 nl of RNAse-free water containing the desired mRNAs. The mRNA quantities used per oocyte were: ICCR with Kcv, 2.7 ng (M2_Kcv and D2_Kcv) and 2.9 ng (OXTR_Kcv); ICCR with mTREK-1, 4.2 ng; ICCR with Kir6.2, 4.3 ng; M2, 2.3 ng; D2, 2.2 ng; Kir3.4T, 2.2 ng; Kcv 0.46 ng and mTREK-1, 2.1 ng. Microinjected oocytes were incubated 2 to 3 days at 19°C in modified-Barth's solution (in mM: 1 KCl, 0.82 MgSO4, 88 NaCl, 2.4 NaHCO3, 0.41 CaCl2, 16 HEPES, pH 7.4) supplemented with 100 U.ml^−1 of penicillin and streptomycin and 0.1 mg.mL^−1 of gentamycin. Animal handling and experiments fully conformed to European regulations and were approved by the French Ministry of Higher Education and Research (APAFIS#4420-2016030813053199 v4 to CM). Authorization of the animal facility has been delivered by the Prefect of Isere (Authorization #D 38 185 10 001).
Two-electrode voltage-clamp (TEVC) recordings were performed automatically with HiClamp robots (MultiChannel Systems). These TEVC robots rapidly change the applied solutions by transferring the oocytes in different wells of a 96-well plate. […] Microelectrodes were filled with […]. During recordings, oocytes were incubated in low potassium concentration buffer (ND96, in mM: 96 NaCl, 2 KCl, 1.8 CaCl2, 1 MgCl2, 5 HEPES, pH 7.4 supplemented with 0.3 niflumic acid), and in high potassium buffer (in mM: 91 KCl, 1.8 CaCl2, 1 MgCl2, 5 HEPES, 0.3 niflumic acid, pH 7.4). The membrane voltage was clamped to −50 mV. Ligands and BaCl2 were diluted in the high potassium buffer. […] Ligand effects were measured in high potassium concentration buffer with the membrane potential clamped to −50 mV and at 19°C.
Change of potassium current induced by ligand was calculated either with the barium-sensitive currents as a 0-reference for Kcv-based ICCRs or with the currents in ND96 for mTREK-1 ICCRs. Softwares created by Michel Vivaudou ([Vivaudou, 2019]) were used to extract the raw data.

M2_T-09-40 = molecular target: T3, M2_T-09-40 (UniProt P08172+P97438); assay: TEVC recording of M2_T-09-40 in Xenopus oocytes; type: cell-based, human (M2), mouse (TREK-1); settings: ACh 5 μM
T3 construct: expressed in transfected cells; host or cells: Xenopus oocytes (mRNA injection)
Method: as §1

M2_T-00-37 = molecular target: T4, M2_T-00-37 (UniProt P08172+P97438); assay: TEVC recording of M2_T-00-37 ICCR in Xenopus oocytes; type: cell-based, human (M2), mouse (TREK-1); settings: 91 mM K+, Vm = −50 mV, mean ± SEM
T4 construct: M2_T-00-37 with zero deletion in the M2 receptor C terminus (full-length receptor); expressed in transfected cells; host or cells: Xenopus oocytes (mRNA injection)
Method: as §1

T4 sequence (P08172+P97438 fused): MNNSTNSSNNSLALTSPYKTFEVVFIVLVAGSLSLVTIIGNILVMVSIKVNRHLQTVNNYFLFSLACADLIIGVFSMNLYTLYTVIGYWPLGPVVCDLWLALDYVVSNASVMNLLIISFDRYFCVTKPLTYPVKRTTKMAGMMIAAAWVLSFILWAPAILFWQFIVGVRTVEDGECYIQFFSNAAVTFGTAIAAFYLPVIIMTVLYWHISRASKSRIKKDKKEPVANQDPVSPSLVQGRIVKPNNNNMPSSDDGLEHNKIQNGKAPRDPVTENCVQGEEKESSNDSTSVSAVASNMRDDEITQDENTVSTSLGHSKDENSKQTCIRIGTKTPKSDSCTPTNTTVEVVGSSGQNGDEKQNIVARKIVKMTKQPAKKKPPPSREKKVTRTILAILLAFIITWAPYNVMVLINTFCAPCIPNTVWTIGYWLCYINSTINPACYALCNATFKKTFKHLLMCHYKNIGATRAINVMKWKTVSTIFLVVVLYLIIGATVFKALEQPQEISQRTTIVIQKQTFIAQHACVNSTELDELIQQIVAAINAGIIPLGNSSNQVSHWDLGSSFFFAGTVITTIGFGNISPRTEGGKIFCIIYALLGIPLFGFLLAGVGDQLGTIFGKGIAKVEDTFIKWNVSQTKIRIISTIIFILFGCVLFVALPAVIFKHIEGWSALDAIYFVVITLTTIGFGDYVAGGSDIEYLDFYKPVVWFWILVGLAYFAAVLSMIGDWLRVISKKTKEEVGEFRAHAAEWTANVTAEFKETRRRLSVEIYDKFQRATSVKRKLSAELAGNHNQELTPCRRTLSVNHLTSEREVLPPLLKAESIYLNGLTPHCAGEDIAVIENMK
T3 sequence (P08172+P97438 fused): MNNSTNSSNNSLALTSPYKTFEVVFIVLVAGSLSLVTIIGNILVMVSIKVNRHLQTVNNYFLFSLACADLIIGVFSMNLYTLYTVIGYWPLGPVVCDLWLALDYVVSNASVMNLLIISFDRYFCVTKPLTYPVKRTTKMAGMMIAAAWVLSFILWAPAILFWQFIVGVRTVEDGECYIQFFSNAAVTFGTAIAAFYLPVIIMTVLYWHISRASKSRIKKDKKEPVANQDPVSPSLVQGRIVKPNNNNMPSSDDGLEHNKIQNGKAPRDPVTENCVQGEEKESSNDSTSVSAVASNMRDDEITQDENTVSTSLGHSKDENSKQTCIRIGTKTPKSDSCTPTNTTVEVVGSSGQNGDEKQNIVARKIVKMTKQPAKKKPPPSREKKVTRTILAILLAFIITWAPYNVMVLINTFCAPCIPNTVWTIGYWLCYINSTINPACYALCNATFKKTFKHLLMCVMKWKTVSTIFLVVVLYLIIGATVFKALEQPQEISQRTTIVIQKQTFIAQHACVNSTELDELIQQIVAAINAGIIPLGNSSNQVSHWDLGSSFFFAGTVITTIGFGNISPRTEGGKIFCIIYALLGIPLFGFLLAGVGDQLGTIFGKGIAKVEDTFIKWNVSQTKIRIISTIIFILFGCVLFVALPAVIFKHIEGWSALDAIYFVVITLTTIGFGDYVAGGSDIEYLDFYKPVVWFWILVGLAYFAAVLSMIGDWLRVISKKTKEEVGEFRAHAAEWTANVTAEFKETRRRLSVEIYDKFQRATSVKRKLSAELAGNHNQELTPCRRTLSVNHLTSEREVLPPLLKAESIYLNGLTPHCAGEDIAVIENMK

`CC(=O)OCC[N+](C)(C)C` [ACh, acetylcholine] was tested, and the “Hill coefficient (nH) on M2_Kcv-09-03” value (M2_Kcv-09-03; concentration-effect curve, TEVC) was 0.37, the inhibition at 5 µM (M2_Kcv-09-03; read-out: inhibition: % of current change induced by ACh 5 μM on M2_Kcv-09-03, 5 μM, Xenopus oocytes, 91 mM K+, Vm = −50 mV, printed as inhibition, mean ± SEM) was 53.4% and the “Hill coefficient (nH) on M2_T-00-43” value (M2_T-00-43) was 0.76. For the same molecule, the “activation: % of current change induced by ACh 5 μM on M2_T-00-43” value (M2_T-00-43) was 49.9% ± 5.1%, the “activation: % of current change induced by ACh 5 μM on M2_T-00-43 co-expressed with PTX” value (M2_T-00-43; 5 μM, co-injection of mRNA for pertussis toxin S1 subunit, mean ± SEM) was 49.3% ± 4.4% and the “regulation of M2_T-09-40 by ACh” value (M2_T-09-40) was “no significant regulation”. For the same molecule, the “activation: % of current change induced by ACh 5 μM on M2_T-00-37” value (M2_T-00-37) was 3.9% ± 0.9%.
